Assay results taken from ChEMBL document CHEMBL4007491, “Structure-based drug design of novel ASK1 inhibitors using an integrated lead optimization strategy” (Bioorg Med Chem Lett, 2017).

Columns and labels:
[1] = target: T1, Mitogen-activated protein kinase kinase kinase 5 (Homo sapiens, UniProt Q99683); assay: Inhibition of ASK1 (unknown origin) using biotin-MBP as substrate after 20 mins by TR-FRET assay
T1 sequence (Q99683 whole entry): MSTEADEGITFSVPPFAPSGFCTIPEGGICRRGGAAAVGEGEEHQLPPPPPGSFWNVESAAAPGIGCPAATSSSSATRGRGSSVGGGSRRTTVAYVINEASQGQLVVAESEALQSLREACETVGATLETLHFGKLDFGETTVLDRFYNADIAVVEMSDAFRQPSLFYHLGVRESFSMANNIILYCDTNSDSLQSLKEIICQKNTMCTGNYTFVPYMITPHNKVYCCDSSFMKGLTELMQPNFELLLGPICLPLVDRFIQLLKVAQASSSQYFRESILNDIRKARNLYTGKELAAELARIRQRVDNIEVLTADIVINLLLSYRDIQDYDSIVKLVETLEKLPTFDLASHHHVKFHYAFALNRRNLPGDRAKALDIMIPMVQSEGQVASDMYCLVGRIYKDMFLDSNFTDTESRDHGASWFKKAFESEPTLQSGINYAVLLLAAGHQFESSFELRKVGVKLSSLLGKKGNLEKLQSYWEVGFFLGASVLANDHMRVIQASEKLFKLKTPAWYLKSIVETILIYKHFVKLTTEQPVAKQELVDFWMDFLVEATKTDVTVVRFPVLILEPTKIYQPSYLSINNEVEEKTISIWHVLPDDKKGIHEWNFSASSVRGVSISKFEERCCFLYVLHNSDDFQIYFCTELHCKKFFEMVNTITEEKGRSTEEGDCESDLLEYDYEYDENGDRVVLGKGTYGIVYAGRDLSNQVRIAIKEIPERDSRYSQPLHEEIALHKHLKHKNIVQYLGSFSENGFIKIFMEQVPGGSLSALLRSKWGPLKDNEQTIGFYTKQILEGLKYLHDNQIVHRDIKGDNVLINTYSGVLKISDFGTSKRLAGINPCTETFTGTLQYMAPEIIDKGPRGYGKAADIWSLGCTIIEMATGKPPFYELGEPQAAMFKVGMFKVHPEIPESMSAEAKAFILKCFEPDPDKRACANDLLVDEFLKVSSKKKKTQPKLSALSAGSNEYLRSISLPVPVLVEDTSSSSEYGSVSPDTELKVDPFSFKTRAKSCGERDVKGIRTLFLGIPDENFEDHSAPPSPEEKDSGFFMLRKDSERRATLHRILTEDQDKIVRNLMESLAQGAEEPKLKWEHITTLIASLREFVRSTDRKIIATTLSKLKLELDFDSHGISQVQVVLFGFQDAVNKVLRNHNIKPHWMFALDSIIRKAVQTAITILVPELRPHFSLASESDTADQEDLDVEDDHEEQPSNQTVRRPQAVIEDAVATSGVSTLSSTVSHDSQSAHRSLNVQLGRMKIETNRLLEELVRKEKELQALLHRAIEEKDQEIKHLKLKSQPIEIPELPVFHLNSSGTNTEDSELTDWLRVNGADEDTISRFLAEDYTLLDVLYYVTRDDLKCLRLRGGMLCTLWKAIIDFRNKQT

[2] = target: T2, Mitogen-activated protein kinase kinase kinase 5 (Homo sapiens) (UniProt Q99683); assay: Inhibition of ASK1 (unknown origin) at 500 uM using biotin-MBP as substrate after 20 mins by TR-FRET assay relative to control
T2 sequence (whole entry): T1 sequence (Q99683 whole entry)

[3] = target: T1, Mitogen-activated protein kinase kinase kinase 5; assay: Inhibition of ASK1 (unknown origin) assessed as reduction in JNK phosphorylation by cell based assay
[4] = target: Receptor tyrosine-protein kinase erbB-4 (Homo sapiens, UniProt Q15303); assay: Inhibition of recombinant human N-terminal GST-tagged ERBB4 cytoplasmic domain (708 to 993 residues) expressed in baculovirus expression system
[5] = target: Cyclin-dependent kinase 2 (Homo sapiens, UniProt P24941); assay: Inhibition of CDK2 (unknown origin)
[6] = target: Glycogen synthase kinase-3 beta (Homo sapiens, UniProt P49841); assay: Inhibition of recombinant full length human His-tagged GSK3B expressed in baculovirus expression system
Sequence of Glycogen synthase kinase-3 beta (P49841 whole entry): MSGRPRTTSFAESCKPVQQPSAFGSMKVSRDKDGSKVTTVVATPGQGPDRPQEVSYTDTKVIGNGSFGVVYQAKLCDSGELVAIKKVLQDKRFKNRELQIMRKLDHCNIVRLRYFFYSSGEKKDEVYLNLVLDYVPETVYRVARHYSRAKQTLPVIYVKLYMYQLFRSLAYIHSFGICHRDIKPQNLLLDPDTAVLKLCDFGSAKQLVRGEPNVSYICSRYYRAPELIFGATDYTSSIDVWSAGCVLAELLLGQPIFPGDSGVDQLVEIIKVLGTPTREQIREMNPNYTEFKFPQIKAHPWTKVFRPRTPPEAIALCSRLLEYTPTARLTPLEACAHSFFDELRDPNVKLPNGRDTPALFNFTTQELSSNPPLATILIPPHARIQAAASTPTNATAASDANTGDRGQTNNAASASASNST

[7] = target: 5'-AMP-activated protein kinase catalytic subunit alpha-1 (Homo sapiens, UniProt Q13131); assay: Inhibition of PRKAA1 (unknown origin)
Sequence of 5'-AMP-activated protein kinase catalytic subunit alpha-1 (Q13131 whole entry, the tested form may be a part): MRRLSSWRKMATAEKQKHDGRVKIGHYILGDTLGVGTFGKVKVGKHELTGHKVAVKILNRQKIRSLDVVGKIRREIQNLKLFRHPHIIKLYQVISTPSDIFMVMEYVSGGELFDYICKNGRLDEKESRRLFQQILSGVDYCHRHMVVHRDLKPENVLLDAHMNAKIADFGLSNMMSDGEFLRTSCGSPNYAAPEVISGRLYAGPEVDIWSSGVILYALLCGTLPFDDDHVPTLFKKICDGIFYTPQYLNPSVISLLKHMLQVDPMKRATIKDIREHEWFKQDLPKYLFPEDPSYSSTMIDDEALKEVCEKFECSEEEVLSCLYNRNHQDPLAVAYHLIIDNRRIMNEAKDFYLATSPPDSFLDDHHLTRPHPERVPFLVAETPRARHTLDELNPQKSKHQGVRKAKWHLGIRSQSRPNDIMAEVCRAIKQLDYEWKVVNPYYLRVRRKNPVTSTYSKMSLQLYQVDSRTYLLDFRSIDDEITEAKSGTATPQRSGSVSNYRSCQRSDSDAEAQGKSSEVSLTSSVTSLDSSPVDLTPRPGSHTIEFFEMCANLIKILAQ

[8] = target: Rho-associated protein kinase 1 (Homo sapiens, UniProt Q13464); assay: Inhibition of recombinant human GST-tagged ROCK1 catalytic domain expressed in baculovirus expression system
Sequence of Rho-associated protein kinase 1 (Q13464 whole entry, the tested form may be a part): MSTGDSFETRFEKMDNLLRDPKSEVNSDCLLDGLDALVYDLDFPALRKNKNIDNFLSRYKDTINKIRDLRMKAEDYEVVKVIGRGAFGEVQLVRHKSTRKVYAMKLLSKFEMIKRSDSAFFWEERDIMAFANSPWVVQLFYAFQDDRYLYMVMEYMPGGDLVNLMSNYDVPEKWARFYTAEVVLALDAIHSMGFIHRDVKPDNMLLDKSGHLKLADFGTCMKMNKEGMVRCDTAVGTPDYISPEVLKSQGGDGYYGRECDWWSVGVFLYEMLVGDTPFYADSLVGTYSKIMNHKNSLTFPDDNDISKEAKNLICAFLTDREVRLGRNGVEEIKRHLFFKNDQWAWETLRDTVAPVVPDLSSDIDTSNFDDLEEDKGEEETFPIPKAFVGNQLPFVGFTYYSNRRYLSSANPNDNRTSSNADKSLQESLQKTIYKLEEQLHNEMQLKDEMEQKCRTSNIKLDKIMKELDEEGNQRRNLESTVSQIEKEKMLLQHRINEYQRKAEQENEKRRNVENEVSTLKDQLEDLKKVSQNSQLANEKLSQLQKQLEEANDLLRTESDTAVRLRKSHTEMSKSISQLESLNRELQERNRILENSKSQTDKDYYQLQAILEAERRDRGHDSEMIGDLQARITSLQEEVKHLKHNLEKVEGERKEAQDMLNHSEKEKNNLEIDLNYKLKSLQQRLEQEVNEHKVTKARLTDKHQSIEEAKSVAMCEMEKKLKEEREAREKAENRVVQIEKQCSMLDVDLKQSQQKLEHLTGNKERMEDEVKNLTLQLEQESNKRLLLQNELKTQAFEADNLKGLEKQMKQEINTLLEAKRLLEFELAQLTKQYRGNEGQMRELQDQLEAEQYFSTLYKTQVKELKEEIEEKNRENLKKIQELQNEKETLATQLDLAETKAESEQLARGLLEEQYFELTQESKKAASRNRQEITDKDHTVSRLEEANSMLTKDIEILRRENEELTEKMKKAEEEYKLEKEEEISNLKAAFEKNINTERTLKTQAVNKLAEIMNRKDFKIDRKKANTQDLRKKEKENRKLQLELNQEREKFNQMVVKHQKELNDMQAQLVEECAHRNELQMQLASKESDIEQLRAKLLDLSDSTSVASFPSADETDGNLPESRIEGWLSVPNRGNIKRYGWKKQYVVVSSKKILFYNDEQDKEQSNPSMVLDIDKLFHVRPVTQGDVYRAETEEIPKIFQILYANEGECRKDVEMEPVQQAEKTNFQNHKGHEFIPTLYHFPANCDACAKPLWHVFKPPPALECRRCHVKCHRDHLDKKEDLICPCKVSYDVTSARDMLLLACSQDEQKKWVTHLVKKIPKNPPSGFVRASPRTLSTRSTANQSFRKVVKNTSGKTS

Ephrin type-A receptor 3 = target: T3, Ephrin type-A receptor 3 (Homo sapiens, UniProt P29320); assay: Inhibition of recombinant human His-tagged EPHA3 cytoplasmic domain (569 to 976 residues) expressed in baculovirus expression system
T3 sequence (P29320 whole entry): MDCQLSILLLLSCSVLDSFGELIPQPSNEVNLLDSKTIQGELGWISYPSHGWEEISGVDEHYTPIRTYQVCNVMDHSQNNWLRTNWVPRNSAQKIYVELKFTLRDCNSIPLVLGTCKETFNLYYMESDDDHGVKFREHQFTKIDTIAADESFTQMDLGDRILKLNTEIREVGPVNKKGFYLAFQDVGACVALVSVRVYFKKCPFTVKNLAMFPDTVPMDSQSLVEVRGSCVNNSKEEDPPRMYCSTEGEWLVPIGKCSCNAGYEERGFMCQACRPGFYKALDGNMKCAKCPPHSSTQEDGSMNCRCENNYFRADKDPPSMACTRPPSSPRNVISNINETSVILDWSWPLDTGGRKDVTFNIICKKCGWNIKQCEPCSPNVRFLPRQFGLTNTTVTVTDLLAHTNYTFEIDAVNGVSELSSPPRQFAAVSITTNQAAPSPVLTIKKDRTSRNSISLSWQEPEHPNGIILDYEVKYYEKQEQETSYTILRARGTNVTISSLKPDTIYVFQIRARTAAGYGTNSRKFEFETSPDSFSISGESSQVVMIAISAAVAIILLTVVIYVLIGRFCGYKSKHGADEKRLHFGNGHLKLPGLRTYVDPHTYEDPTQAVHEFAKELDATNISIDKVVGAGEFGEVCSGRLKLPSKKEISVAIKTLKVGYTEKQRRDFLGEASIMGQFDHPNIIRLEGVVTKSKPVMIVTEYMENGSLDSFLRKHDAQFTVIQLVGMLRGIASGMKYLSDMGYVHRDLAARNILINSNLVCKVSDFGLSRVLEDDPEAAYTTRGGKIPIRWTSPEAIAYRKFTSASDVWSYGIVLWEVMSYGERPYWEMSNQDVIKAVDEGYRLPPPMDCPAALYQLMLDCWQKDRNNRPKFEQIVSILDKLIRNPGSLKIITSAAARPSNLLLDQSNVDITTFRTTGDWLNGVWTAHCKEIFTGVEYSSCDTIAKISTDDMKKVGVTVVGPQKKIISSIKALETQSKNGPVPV

[9] = target: Proto-oncogene tyrosine-protein kinase receptor Ret (Homo sapiens, UniProt P07949); assay: Inhibition of recombinant human GST-tagged RET cytoplasmic domain expressed in baculovirus expression system
[10] = target: T4, Tyrosine-protein kinase Mer (Homo sapiens, UniProt Q12866); assay: Inhibition of recombinant human GST-tagged MER cytoplasmic domain expressed in baculovirus expression system
T4 sequence (Q12866 whole entry): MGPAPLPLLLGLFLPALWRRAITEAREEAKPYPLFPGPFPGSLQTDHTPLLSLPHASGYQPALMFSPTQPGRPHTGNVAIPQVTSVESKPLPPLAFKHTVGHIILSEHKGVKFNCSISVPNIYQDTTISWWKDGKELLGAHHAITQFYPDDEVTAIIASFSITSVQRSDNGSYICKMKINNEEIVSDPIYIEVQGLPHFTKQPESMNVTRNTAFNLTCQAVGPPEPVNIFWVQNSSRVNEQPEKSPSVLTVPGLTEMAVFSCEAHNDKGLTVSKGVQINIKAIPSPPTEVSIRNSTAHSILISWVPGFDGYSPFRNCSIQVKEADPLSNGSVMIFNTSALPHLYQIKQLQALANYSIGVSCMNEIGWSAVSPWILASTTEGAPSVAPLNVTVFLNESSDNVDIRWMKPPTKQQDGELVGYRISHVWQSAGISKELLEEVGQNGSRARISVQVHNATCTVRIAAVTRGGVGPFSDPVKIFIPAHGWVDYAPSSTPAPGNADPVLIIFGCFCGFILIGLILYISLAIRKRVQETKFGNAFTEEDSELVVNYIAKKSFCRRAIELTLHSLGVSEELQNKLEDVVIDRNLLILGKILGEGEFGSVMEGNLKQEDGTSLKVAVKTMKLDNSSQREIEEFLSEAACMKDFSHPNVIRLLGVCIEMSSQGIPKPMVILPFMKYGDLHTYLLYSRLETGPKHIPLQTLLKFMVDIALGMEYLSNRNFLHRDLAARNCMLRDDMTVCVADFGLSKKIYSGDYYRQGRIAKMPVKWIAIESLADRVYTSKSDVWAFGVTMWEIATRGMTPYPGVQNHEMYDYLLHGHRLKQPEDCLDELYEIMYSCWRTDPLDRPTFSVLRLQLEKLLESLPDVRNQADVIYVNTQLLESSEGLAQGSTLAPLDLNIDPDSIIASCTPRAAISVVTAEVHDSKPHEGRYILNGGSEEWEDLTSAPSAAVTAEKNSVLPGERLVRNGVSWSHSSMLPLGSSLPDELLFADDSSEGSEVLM

[11] = target: Epidermal growth factor receptor (Homo sapiens, UniProt P00533); assay: Inhibition of recombinant human GST-tagged EGFR cytoplasmic domain (668 to 1210 residues) expressed in baculovirus expression system
Sequence of Epidermal growth factor receptor (P00533 whole entry, the tested form may be a part): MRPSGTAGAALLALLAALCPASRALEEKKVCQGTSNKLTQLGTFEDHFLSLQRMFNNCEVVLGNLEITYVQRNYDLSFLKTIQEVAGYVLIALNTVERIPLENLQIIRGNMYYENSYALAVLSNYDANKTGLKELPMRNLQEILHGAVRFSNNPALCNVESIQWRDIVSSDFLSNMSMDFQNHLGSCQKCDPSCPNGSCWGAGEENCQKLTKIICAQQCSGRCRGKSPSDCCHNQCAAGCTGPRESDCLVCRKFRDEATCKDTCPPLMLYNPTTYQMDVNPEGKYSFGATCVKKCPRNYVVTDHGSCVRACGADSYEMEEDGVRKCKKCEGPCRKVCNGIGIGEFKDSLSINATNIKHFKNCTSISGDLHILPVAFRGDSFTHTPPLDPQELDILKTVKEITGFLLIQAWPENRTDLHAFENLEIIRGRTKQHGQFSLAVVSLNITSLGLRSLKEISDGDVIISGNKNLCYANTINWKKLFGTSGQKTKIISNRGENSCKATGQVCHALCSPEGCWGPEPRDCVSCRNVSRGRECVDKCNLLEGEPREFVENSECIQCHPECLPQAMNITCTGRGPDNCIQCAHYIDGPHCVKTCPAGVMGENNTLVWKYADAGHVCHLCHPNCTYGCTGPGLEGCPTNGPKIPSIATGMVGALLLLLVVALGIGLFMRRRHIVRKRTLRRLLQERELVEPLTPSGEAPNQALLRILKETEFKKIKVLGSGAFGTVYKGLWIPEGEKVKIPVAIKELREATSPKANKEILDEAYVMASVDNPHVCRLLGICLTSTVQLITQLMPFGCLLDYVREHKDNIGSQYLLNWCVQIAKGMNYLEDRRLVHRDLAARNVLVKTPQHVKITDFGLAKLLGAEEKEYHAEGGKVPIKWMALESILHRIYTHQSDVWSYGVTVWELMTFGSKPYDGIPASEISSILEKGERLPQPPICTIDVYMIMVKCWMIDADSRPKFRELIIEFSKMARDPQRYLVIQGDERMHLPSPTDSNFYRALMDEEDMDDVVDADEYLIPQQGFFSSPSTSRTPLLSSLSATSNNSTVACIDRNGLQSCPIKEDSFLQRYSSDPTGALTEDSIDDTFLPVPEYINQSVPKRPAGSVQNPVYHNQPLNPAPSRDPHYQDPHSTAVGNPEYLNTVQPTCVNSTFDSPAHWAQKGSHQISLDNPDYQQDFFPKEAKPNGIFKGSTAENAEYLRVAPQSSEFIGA

[12] = target: Macrophage-stimulating protein receptor (Homo sapiens, UniProt Q04912); assay: Inhibition of recombinant human GST-tagged RON cytoplasmic domain expressed in baculovirus expression system
Sequence of Macrophage-stimulating protein receptor (Q04912 25-304 limits assumed): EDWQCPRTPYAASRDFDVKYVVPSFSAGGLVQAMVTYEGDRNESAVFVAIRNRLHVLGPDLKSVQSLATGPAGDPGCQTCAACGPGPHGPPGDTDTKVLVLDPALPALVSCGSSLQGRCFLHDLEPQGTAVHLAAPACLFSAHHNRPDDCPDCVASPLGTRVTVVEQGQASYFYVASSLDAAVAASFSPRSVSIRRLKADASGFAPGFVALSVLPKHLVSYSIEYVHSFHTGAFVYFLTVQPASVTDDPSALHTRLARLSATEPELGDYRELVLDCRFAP
Sequence of Macrophage-stimulating protein receptor (Q04912 310-1400 limits assumed): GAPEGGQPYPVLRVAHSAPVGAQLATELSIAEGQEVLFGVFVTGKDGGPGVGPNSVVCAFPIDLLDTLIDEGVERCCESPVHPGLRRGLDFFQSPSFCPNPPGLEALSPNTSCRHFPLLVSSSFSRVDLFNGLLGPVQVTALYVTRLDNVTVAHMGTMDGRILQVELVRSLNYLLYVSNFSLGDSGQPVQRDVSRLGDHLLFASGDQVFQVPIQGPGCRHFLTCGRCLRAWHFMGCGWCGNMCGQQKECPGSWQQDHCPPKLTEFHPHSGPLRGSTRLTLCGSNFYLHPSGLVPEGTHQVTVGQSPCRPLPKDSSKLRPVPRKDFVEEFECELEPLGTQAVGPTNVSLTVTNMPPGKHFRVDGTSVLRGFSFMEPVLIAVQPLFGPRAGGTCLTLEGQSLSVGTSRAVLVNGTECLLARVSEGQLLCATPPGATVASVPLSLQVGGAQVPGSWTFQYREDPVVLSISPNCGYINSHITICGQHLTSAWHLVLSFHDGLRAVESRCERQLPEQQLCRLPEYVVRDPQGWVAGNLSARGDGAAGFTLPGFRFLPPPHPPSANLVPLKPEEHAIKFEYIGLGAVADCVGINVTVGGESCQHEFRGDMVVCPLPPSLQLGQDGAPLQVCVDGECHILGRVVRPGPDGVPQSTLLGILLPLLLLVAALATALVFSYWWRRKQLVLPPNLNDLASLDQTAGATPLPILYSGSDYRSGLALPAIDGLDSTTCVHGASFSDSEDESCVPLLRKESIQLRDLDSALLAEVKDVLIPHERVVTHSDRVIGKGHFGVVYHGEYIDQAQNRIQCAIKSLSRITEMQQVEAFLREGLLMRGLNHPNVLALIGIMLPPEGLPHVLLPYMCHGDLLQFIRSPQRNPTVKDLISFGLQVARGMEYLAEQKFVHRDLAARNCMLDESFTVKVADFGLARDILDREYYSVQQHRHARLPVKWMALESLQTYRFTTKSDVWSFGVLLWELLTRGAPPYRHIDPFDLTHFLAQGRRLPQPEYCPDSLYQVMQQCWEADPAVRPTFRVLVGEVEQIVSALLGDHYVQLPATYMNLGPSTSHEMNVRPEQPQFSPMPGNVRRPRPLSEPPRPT

MAP kinase p38 = MAP kinase p38 (Homo sapiens, UniProt O15264+Q15759+Q16539+P53778); assay: Inhibition of MAPK p38 (unknown origin)
[13] = target: T5, Tyrosine-protein kinase ITK/TSK (Homo sapiens, UniProt Q08881); assay: Inhibition of recombinant full length human GST-tagged ITK expressed in baculovirus expression system
T5 sequence (Q08881 whole entry): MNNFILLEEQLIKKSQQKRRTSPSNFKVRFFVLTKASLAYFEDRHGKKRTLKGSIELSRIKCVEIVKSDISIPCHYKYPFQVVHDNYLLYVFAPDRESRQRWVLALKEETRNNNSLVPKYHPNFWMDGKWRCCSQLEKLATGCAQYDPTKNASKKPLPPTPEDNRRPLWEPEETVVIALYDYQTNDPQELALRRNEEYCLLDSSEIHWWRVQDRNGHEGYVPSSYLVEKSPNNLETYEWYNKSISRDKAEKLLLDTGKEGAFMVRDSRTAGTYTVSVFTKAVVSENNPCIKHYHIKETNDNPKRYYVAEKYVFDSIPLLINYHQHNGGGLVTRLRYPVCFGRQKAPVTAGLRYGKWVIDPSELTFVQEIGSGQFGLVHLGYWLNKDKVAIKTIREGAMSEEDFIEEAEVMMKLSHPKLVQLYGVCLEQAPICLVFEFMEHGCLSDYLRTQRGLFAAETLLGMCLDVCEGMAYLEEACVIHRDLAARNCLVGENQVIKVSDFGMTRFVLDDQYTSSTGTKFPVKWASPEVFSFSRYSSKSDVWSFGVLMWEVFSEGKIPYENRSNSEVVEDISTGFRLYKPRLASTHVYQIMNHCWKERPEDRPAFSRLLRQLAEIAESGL

| IC50 [1] | inhibition [2] | EC50 [3] | SMILES | other results |
| --- | --- | --- | --- | --- |
| 400 nM | – | – | CC(C)n1cnnc1-c1nc(C(=O)Nc2ccccn2)cs1 | – |
| – | 35% | – | CCn1cnc(NC(=O)c2ccco2)c1 | – |
| 500000 nM | 51% | – | CCn1cnc(NC(=O)c2ccoc2)c1 | – |
| 600 nM | – | 600 nM | CCn1cc(NC(=O)c2csc(-c3nncn3C(C)C)n2)cn1 | – |
| 100000 nM | 75% | – | CCn1cnc(NC(=O)c2cscn2)c1 | – |
| – | – | – | CC(C)(C)c1ccc(C(=O)Nc2cn3cc(-n4ccnc4)ccc3n2)cc1 | IC50 [4]: > 20000 nM; IC50 [5]: 155 nM; IC50 [6]: 832 nM; IC50 [7]: 13800 nM; IC50 [8]: 4900 nM; IC50 (Ephrin type-A receptor 3): > 20000 nM; IC50 [9]: 11500 nM; IC50 [10]: 6460 nM; IC50 [11]: > 20000 nM; IC50 [12]: > 20000 nM; pIC50 (MAP kinase p38): < 4.7; IC50 [13]: 5500 nM |
| 6000 nM | – | – | Cc1cc(F)c(C(=O)Nc2ccccn2)cc1-n1cnc(C2CC2)c1 | – |
| – | – | 65 nM | COCCCn1cc(NC(=O)c2csc(-c3nncn3C(C)C)n2)cn1 | – |
| 55 nM | – | – | Cc1ccc(C(=O)Nc2cccc(-c3nncn3C(C)C)n2)c(F)c1 | – |
| – | – | 130 nM | CC(C)n1cnnc1-c1nc(C(=O)Nc2cnn(C3COC3)c2)cs1 | – |
| – | 40% | – | CCn1cnc(NC(=O)c2ccccc2)c1 | – |
| – | < 10% | – | CCn1cnc(NC(=O)C2CCC2)c1 | – |
| – | – | 99 nM | COCCNc1ccnc(NC(=O)c2csc(-c3nncn3C(C)C)n2)c1 | – |
| – | – | 140 nM | COCCOc1ccnc(NC(=O)c2csc(-c3nncn3C(C)C)n2)c1 | – |
